In patent US20040081972A1, “Novel physiologically active peptide and use thereof” (priority 2000, published 2004):
[ ]: non-standard residue; d: D form. LYB = not defined here

Legend:
Format in all cases: cell-based
[1] = system: thymus, abdominal muscle, diaphragm, kidney, crystalline lens, pancreas, fat tissue, liver, blood vessel, ovary, womb and adrenal gland; test: Intracellular calcium (aequorin luminescence) in organs other than the spleen and skull of apoaequorin transgenic mouse
Protocol: In order to measure changes in the concentration of an intracellular signal transduction substance in cells constituting the organs, a transgenic mouse prepared by integrated an apoaequorin gene expression vector into a chromosome was used. […] The transgenic mouse was prepared and reared as an SPF animal in a clean room, and was not contaminated with pathogens including mouse hepatitis virus, Sendai virus, mycoplasma and Tyzzer bacterium.

[2] = system: blood vessel of an apoaequorin transgenic mouse; test: Intracellular calcium (aequorin luminescence) in blood vessel pieces of apoaequorin transgenic mouse
Protocol: (§1) In order to evaluate physiological activities of the peptides prepared in Example 1, the prepared peptides were allowed to act upon organs excised from the living body, and changes in the concentration of an intracellular signal transduction substance in cells constituting the organs were measured.
(§2) In order to measure changes in the concentration of an intracellular signal transduction substance in cells constituting the organs, a transgenic mouse prepared by integrated an apoaequorin gene expression vector into a chromosome was used. Specifically, a female mouse derived from the transgenic mouse disclosed in Reference Example 4 as an individual number 98075-04-6 was used in the test. The transgenic mouse was prepared and reared as an SPF animal in a clean room, and was not contaminated with pathogens including mouse hepatitis virus, Sendai virus, mycoplasma and Tyzzer bacterium.
(§3) Aequorin is a bioluminescent protein complex which is present in the umbrella region of luminescent Aequorea victoria. Aequorin is constituted from its protein moiety apoaequorin, its luminescence substrate coelent razin and molecular oxygen, and emits light by its binding with calcium ion. Since expression of the apoaequorin protein has been confirmed in at least thymus, spleen, abdominal muscle, diaphragm, kidney, crystalline lens, pancreas, fat tissue, liver, skull, blood vessel, ovary, womb and adrenal gland of the transgenic mouse used in the test, it was able to monitor changes in the intracellular calcium ion concentration in these organs with a high sensitivity.
(§4) Organs were prepared from offsprings borne from the female of individual number 98075-04-6 to examine the activities of the peptides produced in Example 1. After the offsprings were killed, the thymus, spleen, abdominal muscle, diaphragm, kidney, crystalline lens, pancreas, fat tissue, liver, skull, blood vessel, ovary, womb and adrenal gland were excised. Each of the excised organs was cut into small cubes of about 1 to 2 mm square in PBS containing 10 units/ml of heparin sodium and thoroughly washed by changing the solution. Next, three pieces of each of the organ samples thus prepared were put into a 5 ml capacity tube (Rohren-Tubes; No. 55.476, manufactured by Sarstedt) which had been charged with RPMI 1640 medium containing 200 μl of 10 μmol/l coelenterazine (manufactured by Molecular Probes), and cultured at 37° C. for 5 hours. Five hours after, various substances shown below dissolved in RPMI 1640 medium were added at 200 μl, and the luminescence was measured just after the addition at 1 second intervals using a luminometer AutoLumat LB953 (manufactured by BERTHOLD).

[3] = system: skull (cranial bone) of an apoaequorin transgenic mouse; test: Intracellular calcium (aequorin luminescence) in skull (cranial bone) pieces of apoaequorin transgenic mouse; settings: final concentration 10 μmol/l
Protocol: as §1, §2, §3, §4

[4] = system: spleen of an apoaequorin transgenic mouse; test: Intracellular calcium (aequorin luminescence) in spleen pieces of apoaequorin transgenic mouse; settings: for physiological activity (the activity found in Peptide 1 or Peptide 3): purified samples, method of Example 3
Protocol: as §1, §2, §3, §4
Organs were prepared from offsprings borne from the female of individual number 98075-04-6 to examine the activities of the peptides produced in Example 1. After the offsprings were killed, the spleen was excised. The excised spleen was cut into small cubes of about 1 to 2 mm square in PBS containing 10 units/ml of heparin sodium and thoroughly washed by changing the solution. Next, three pieces of the prepared spleen sample were put into a 5 ml capacity tube (Rohren-Tubes; No. 55.476, manufactured by Sarstedt) which had been charged with RPMI 1640 medium containing 200 μl of 10 μmol/l coelenterazine (manufactured by Molecular Probes), and cultured at 37° C. for 5 hours. Five hours after, various substances shown below dissolved in RPMI 1640 medium were added at 200 μl, and the luminescence was measured just after the addition at 1 second intervals using a luminometer AutoLumat LB953 (manufactured by BERTHOLD).
RPMI 1640, a peptide prepared in Example 1 (final concentration: 10 nmol/l), a peptide prepared in Example 1 (final concentration: 100 nmol/l), a peptide prepared in Example 1 (final concentration: 1 μmol/l), a peptide prepared in Example 1 (final concentration; 10 μmol/l), ATP (final concentration: 100 μmol/l), A23187 (final concentration: 1 μmol/l) and Triton X-100 (final concentration: 2%) were added in order. […]

[5] = system: thymus of an apoaequorin transgenic mouse; test: Intracellular calcium (aequorin luminescence) in thymus pieces of apoaequorin transgenic mouse
Protocol: as §1
as §2, with “The transgenic mouse was prepared and reared as an SPF animal in a clean room, and was not contaminated with pathogens including mouse hepatitis virus, Sendai virus, mycoplasma and Tyzzer bacterium.” left out
Aequorin is a bioluminescent protein complex which is present in the umbrella region of luminescent Aequorea victoria. Aequorin is constituted from its protein moiety apoaequorin, its luminescence substrate coelent razin and molecular oxygen, and emits light by its binding with calcium ion. […]
Organs were prepared from offsprings borne from the female of individual number 98075-04-6 to examine the activities of the peptides produced in Example 1. […] Five hours after, various substances shown below dissolved in RPMI 1640 medium were added at 200 μl, and the luminescence was measured just after the addition at 1 second intervals using a luminometer AutoLumat LB953 (manufactured by BERTHOLD).

[6] = system: spleen of an apoaequorin transgenic mouse; test: Intracellular calcium (aequorin luminescence) in spleen pieces of apoaequorin transgenic mouse
[7] = 10 nmol/l, 100 nmol/l, 1 μmol/l, 10 μmol/l added in order

CNc1ccc2oc(C[C@H]3O[C@@]4(CC[C@H]3C)O[C@H]([C@H](C)C(=O)c3ccc[nH]3)[C@H](C)C[C@H]4C)nc2c1C(=O)O [Peptide A23187, A23187] was tested, and the “luminescence (intracellular calcium increase)” value ([1]; final concentration 1 μmol/l) was “luminescence was observed”.

In the case of C[N+](C)(C)CCOC(N)=O [carbachol], the “luminescence (intracellular calcium increase)” value ([2]; final concentration 10 μmol/l) is reported as “Strong luminescenc”.

“H-Met-Leu-Glu-Lys-Leu-Gly-Val-Pro-Lys-Thr-His-Leu-Glu-Leu-Lys-Arg-Leu-Ile-Arg-Glu-Val-Ser-Ser-Gly-Ser-Glu-Glu-Thr-Phe-Ser-Tyr-Ser-Asp-Phe-Leu-Arg-Met-Met-Leu-NH2 (H-MLEKLGVPKTHLELKRLIREVSSGSEETFSYSDFLRMML-NH2) [Peptide 2]” was tested, and the “luminescence (intracellular calcium increase)” value [3] was “Strong luminescence”, the “final concentration from which concentration-dependent luminescence was observed” value (“final concentration” below) [4, 7] was 0.1 µmol/L and the “luminescence (intracellular calcium increase)” value ([4]; final concentration 10 μmol/l) was “Strong luminescence”.

For “H-Val-Thr-Pro-His-Thr-Lys-Leu-Val-Tyr-Ser-Glu-Ser-Val-Ile-Met-Asn-Met-Ser-Lys-Gly-Glu-Gly-Leu-Met-Glu-Ile-Lys-Leu-Met-Asp-Asp-Met-Met-Thr-Phe-Arg-Lys-val-Gly-NH2 (H-VTPHTKLVYSESVIMNMSKGEGLMEIKLMDDMMTFRK[dV]G-NH2; SMILES CC[C@H](C)[C@H](NC(=O)[C@H](CCC(=O)O)NC(=O)[C@H](CCSC)NC(=O)[C@H](CC(C)C)NC(=O)CNC(=O)[C@H](CCC(=O)O)NC(=O)CNC(=O)[C@H](CCCCN)NC(=O)[C@H](CO)NC(=O)[C@H](CCSC)NC(=O)[C@H](CC(N)=O)NC(=O)[C@H](CCSC)NC(=O)[C@@H](NC(=O)[C@@H](NC(=O)[C@H](CO)NC(=O)[C@H](CCC(=O)O)NC(=O)[C@H](CO)NC(=O)[C@H](Cc1ccc(O)cc1)NC(=O)[C@@H](NC(=O)[C@H](CC(C)C)NC(=O)[C@H](CCCCN)NC(=O)[C@@H](NC(=O)[C@H](Cc1c[nH]cn1)NC(=O)[C@@H]1CCCN1C(=O)[C@@H](NC(=O)[C@@H](N)C(C)C)[C@@H](C)O)[C@@H](C)O)C(C)C)C(C)C)[C@@H](C)CC)C(=O)N[C@@H](CCCCN)C(=O)N[C@@H](CC(C)C)C(=O)N[C@@H](CCSC)C(=O)N[C@@H](CC(=O)O)C(=O)N[C@@H](CC(=O)O)C(=O)N[C@@H](CCSC)C(=O)N[C@@H](CCSC)C(=O)N[C@H](C(=O)N[C@@H](Cc1ccccc1)C(=O)N[C@@H](CCCNC(=N)N)C(=O)N[C@@H](CCCCN)C(=O)N[C@@H](C(=O)NCC(N)=O)C(C)C)[C@@H](C)O) [Peptide 3S]”, the “luminescence (intracellular calcium increase)” value [3] was “not detected” and the “luminescence (intracellular calcium increase)” value ([4]; final concentration 10 μmol/l) was “not detected”.

Triton X-100 was tested, and the luminescence ([1]; final concentration 2%) was “luminescence was observed”.

With CNC[C@H](O)c1cccc(O)c1 [phenylephrine] the “luminescence (intracellular calcium increase)” value ([5]; final concentration 20 μmol/l) was “Strong luminescence” and the “luminescence (intracellular calcium increase)” value ([2]; final concentration 20 μmol/l) was “Strong luminescence”.

CC[C@H](C)[C@H](NC(=O)[C@H](CC(=O)O)NC(=O)[C@H](CC(C)C)NC(=O)[C@H](Cc1c[nH]cn1)NC(=O)[C@@H]1CSSC[C@H](N)C(=O)N[C@@H](CO)C(=O)N[C@H]2CSSC[C@H](NC(=O)[C@H](CCC(=O)O)NC(=O)[C@H](CCCCN)NC(=O)[C@H](CC(=O)O)NC(=O)[C@H](CCSC)NC(=O)[C@H](CC(C)C)NC(=O)[C@H](CO)NC(=O)[C@H](CO)NC2=O)C(=O)N[C@@H](C(C)C)C(=O)N[C@@H](Cc2ccc(O)cc2)C(=O)N[C@@H](Cc2ccccc2)C(=O)N1)C(=O)N[C@H](C(=O)N[C@@H](Cc1c[nH]c2ccccc12)C(=O)O)[C@@H](C)CC [endothelin] was tested, and the “luminescence (intracellular calcium increase)” value ([2]; final concentration 10 nmol/l) was “Strong luminescence”.

In the case of Nc1ncnc2c1ncn2[C@@H]1O[C@H](COP(=O)(O)OP(=O)(O)OP(=O)(O)O)[C@@H](O)[C@H]1O [ATP], the “luminescence (intracellular calcium increase)” value ([5]; final concentration 100 μmol/l) is reported as “Strong luminescence”, the “luminescence (intracellular calcium increase)” value ([4]; final concentration 100 μmol/l) is reported as “Strong luminescence” and the “luminescence (intracellular calcium increase)” value ([2]; final concentration 100 μmol/l) is reported as “Strong luminescence”. For the same molecule, the “luminescence (intracellular calcium increase)” value ([1]; final concentration 100 μmol/l) was “luminescence was observed”.

For “H-Met-Met-Glu-Lys-Leu-Gly-Val-Pro-Lys-Thr-His-Leu-Glu-Met-Lys-Lys-Met-Ile-Ser-Glu-Val-Thr-Gly-Gly-Val-Ser-Asp-Thr-Ile-Ser-Tyr-Arg-Asp-Phe-Val-Asn-Met-Met-Leu-NH2 (H-MMEKLGVPKTHLEMKKMISEVTGGVSDTISYRDFVNMML-NH2) [Peptide 3]”, the “luminescence (intracellular calcium increase)” value [3] was “Strong luminescence”, the “luminescence (intracellular calcium increase)” value ([6]; final concentration 8 μmol/l) was “Strong luminescence” and the “final concentration” value [4, 7] was 1 µmol/L. For the same molecule, the “luminescence (intracellular calcium increase)” value ([4]; final concentration 10 μmol/l) was “Strong luminescence”.

“H-Leu-Ser-Pro-His-Thr-Lys-Leu-Ser-Tyr-Arg-Glu-Glu-Val-Phe-Leu-Arg-Leu-Ser-Lys-Ser-Glu-Gly-Leu-Met-Glu-Ile-LYB-Leu-Met-Glu-Asp-Leu-Met-val-Phe-Ser-Arg-Thr-Gly-NH2 (H-LSPHTKLSYREEVFLRLSKSEGLMEI[LYB]LMEDLM[dV]FSRTG-NH2; reading uncertain) [Peptide 2S]” was tested, and the “luminescence (intracellular calcium increase)” value [3] was “not detected” and the “luminescence (intracellular calcium increase)” value ([4]; final concentration 10 μmol/l) was “not detected”.

In the case of “H-Met-Leu-Glu-Lys-Leu-Gly-Val-Pro-Lys-Thr-His-Leu-Glu-Leu-Lys-Lys-Leu-Ile-Gly-Glu-Val-Ser-Ser-Gly-Ser-Gly-Glu-Thr-Phe-Ser-Tyr-Pro-Asp-Phe-Leu-Arg-Met-Met-Leu-NH2 (H-MLEKLGVPKTHLELKKLIGEVSSGSGETFSYPDFLRMML-NH2) [Peptide 1]”, the “luminescence (intracellular calcium increase)” value [3] is reported as “Strong luminescence”, the “luminescence (intracellular calcium increase)” value ([6]; final concentration 6 μmol/l) is reported as “Strong luminescence” and the “concentration at which luminescence accompanied by the increased intracellular calcium was observed” value [4, 7] is reported as 10 µmol/L. For the same molecule, the “luminescence (intracellular calcium increase)” value ([4]; final concentration 10 μmol/l) was “Strong luminescence”.

For “H-Leu-Ser-Pro-His-Thr-Lys-Leu-Ser-Tyr-Gly-Glu-Gly-Val-Phe-Leu-Arg-Leu-Ser-Lys-Ser-Glu-Gly-Leu-Met-Glu-Ile-Lys-Leu-Met-Glu-Asp-Leu-Met-Val-Phe-Pro-Lys-Thr-Gly-NH2 (H-LSPHTKLSYGEGVFLRLSKSEGLMEIKLMEDLMVFPKTG-NH2) [Peptide 1S]”, the “luminescence (intracellular calcium increase)” value [3] was “not detected” and the “luminescence (intracellular calcium increase)” value ([4]; final concentration 10 μmol/l) was “not detected”.

With “H-Leu-Ile-Arg-Glu-Val-Ser-Ser-Gly-Ser-Glu-Glu-Thr-Phe-Ser-Tyr-Ser-Asp-Phe-Leu-Arg-Met-Met-Leu-NH2 (H-LIREVSSGSEETFSYSDFLRMML-NH2) [Peptide 2 short]” the “final concentration” value [4, 7] was 1 µmol/L and the “activity maintained relative to the activity of Peptide 2” value ([4]; fraction of Peptide 2 activity) was 1/10.

B1: AIF-1: precursor protein comprising the amino acid sequence represented by SEQ ID NO:1; purified after FXa cleavage of MBP fusion (protein, listed as Homo sapiens)
chain: MSQTRDLQGGKAFGLLKAQQEERLDEINKQFLDDPKYSSDEDLPSKLEGFKEKYMEFDLNGNGDIDIMSLKRMLEKLGVPKTHLELKKLIGEVSSGSGETFSYPDFLRMMLGKRSAILKMILMYEEKAREKEKPTGPPAKKAISELP
For B1, the “physiological activity (the activity found in Peptide 1 or Peptide 3)” value [4] was “not observed”.

B2: AIF-2: precursor protein comprising the amino acid sequence represented by SEQ ID NO:5; purified after FXa cleavage of MBP fusion (protein, listed as Homo sapiens)
chain: MSGELSNRFQGGKAFGLLKARQERRLAEINRELLCDQKYSDEENLPEKLTAFKEKYMEFDLNNEGEIDLMSLKRMMEKLGVPKTHLEMKKMISEVTGGVSDTISYRDFVNMMLGKRSAVLKLVMMFEGKANESSPKPVGPPPERDIASLP
With B2 the “physiological activity (the activity found in Peptide 1 or Peptide 3)” value [4] was “not observed”.
